In PubChem BioAssay (NCI):
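Cells were grown in 96-well plates and exposed to each compound for 48 hours at five concentrations; endpoints were interpolated linearly between bracketing concentrations, or set to the highest concentration if not reached. TGI is the concentration that stops growth completely.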

Assays:
Assay in all cases: DTP human tumour cell line panel, 48 h
SW-620 colon = system: SW-620 colon
NCI-H522 lung = system: NCI-H522 lung
HCT-116 colon = system: HCT-116 colon
SN12C renal = system: SN12C renal
UACC-62 melanoma = system: UACC-62 melanoma
HCT-15 colon = system: HCT-15 colon
MALME-3M melanoma = system: MALME-3M melanoma
OVCAR-4 ovarian = system: OVCAR-4 ovarian
LOX IMVI melanoma = system: LOX IMVI melanoma
K-562 leukemia = system: K-562 leukemia
EKVX NSCLC = system: EKVX NSCLC
PC-3 prostate = system: PC-3 prostate
SNB-19 CNS = system: SNB-19 CNS
HT29 colon = system: HT29 colon
HOP-62 NSCLC = system: HOP-62 NSCLC
MDA-MB-231 breast = system: MDA-MB-231 breast
SF-539 CNS = system: SF-539 CNS
KM12 colon = system: KM12 colon
DU-145 prostate = system: DU-145 prostate
UO-31 renal = system: UO-31 renal
MOLT-4 leukemia = system: MOLT-4 leukemia
SF-268 CNS = system: SF-268 CNS
SNB-75 CNS = system: SNB-75 CNS
SK-MEL-28 melanoma = system: SK-MEL-28 melanoma
NCI-H23 lung = system: NCI-H23 lung
RPMI-8226 leukemia = system: RPMI-8226 leukemia
NCI-H460 lung = system: NCI-H460 lung
HCC-2998 colon = system: HCC-2998 colon
OVCAR-5 ovarian = system: OVCAR-5 ovarian
SR leukemia = system: SR leukemia
M14 melanoma = system: M14 melanoma
786-0 renal = system: 786-0 renal
SK-MEL-2 melanoma = system: SK-MEL-2 melanoma
OVCAR-8 ovarian = system: OVCAR-8 ovarian
MDA-MB-435 = system: MDA-MB-435
NCI-H226 lung = system: NCI-H226 lung
SK-MEL-5 melanoma = system: SK-MEL-5 melanoma
ACHN renal = system: ACHN renal
UACC-257 melanoma = system: UACC-257 melanoma
MCF7 breast = system: MCF7 breast
SK-OV-3 ovarian = system: SK-OV-3 ovarian
NCI/ADR-RES ovarian = system: NCI/ADR-RES ovarian
CCRF-CEM leukemia = system: CCRF-CEM leukemia
OVCAR-3 ovarian = system: OVCAR-3 ovarian
U251 CNS = system: U251 CNS
MDA-N = system: MDA-N
CAKI-1 renal = system: CAKI-1 renal
TK-10 renal = system: TK-10 renal
T-47D breast = system: T-47D breast
IGROV1 ovarian = system: IGROV1 ovarian
HL-60(TB) leukemia = system: HL-60(TB) leukemia

Measured: TGI

COc1ccc2cc(C(=O)Nc3ccc(O)c(C(=O)O)c3)ccc2c1OC
> 100 µM: all assays above
